In ChEMBL document CHEMBL4270635, “HDAC3 is a potential validated target for cancer: An overview on the benzamide-based selective HDAC3 inhibitors through comparative SAR/QSAR/QAAR approaches” (Eur J Med Chem, 2018):

Key:
[1] = biological target: T1, Histone deacetylase 3/Nuclear receptor corepressor 2 (HDAC3/NCoR2) (Homo sapiens, UniProt O15379); assay: biochemical; type: cell-based
Description: Inhibition of His6-tagged HDAC3/SMRT (395 to 489 residues) (unknown origin) co-expressed in baculovirus infected sf9 cells using (FAM)-labeled acetylated peptide substrate after 17 hrs by caliper microfluidic mobility shift assay

[2] = biological target: T1, Histone deacetylase 3/Nuclear receptor corepressor 2 (HDAC3/NCoR2); assay: Inhibition of full length human C-terminal His-tagged HDAC3/N-terminal GST-tagged NCOR2 (395 to 489 residues) co-expressed in baculovirus infected sf9 cells using (FAM)-labeled acetylated peptide substrate after 60 mins by caliper microfluidic mobility shift assay
[3] = species on record: Homo sapiens; assay: Selectivity ratio of IC50 for HDAC1 (unknown origin) to IC50 for HDAC3 (unknown origin)
[4] = species on record: Homo sapiens; assay: Selectivity ratio of IC50 for HDAC2 (unknown origin) to IC50 for HDAC3 (unknown origin)
[5] = species on record: Homo sapiens; assay: Selectivity ratio of IC50 for HDAC7 (unknown origin) to IC50 for HDAC3 (unknown origin)
[6] = biological target: Histone deacetylase 3 (Homo sapiens, UniProt O15379); assay: Inhibition of HDAC3 (unknown origin)
Sequence of Histone deacetylase 3 (O15379 whole entry): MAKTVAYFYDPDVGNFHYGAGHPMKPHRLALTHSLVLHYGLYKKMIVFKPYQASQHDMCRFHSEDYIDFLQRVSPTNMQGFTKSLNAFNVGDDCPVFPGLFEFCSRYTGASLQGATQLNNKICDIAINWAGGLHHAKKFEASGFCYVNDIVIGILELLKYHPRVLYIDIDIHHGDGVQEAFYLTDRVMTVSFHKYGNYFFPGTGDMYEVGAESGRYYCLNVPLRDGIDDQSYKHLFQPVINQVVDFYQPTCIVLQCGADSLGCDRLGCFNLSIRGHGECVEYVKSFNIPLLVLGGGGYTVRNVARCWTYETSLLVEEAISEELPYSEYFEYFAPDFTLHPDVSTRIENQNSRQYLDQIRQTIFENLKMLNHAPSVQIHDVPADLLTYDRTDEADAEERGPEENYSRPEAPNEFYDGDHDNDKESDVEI

[7] = species on record: Homo sapiens; assay: Selectivity ratio of IC50 for HDAC4 (unknown origin) to IC50 for HDAC3 (unknown origin)
[8] = species on record: Homo sapiens; assay: Selectivity ratio of IC50 for HDAC8 (unknown origin) to IC50 for HDAC3 (unknown origin)
[9] = species on record: Homo sapiens; assay: Selectivity ratio of IC50 for HDAC6 (unknown origin) to IC50 for HDAC3 (unknown origin)

T1 sequence (O15379 whole entry, the tested form may be a part): as the sequence (O15379 whole entry) above
T1 sequence (Q9Y618 whole entry, further chain, the tested form may be a part): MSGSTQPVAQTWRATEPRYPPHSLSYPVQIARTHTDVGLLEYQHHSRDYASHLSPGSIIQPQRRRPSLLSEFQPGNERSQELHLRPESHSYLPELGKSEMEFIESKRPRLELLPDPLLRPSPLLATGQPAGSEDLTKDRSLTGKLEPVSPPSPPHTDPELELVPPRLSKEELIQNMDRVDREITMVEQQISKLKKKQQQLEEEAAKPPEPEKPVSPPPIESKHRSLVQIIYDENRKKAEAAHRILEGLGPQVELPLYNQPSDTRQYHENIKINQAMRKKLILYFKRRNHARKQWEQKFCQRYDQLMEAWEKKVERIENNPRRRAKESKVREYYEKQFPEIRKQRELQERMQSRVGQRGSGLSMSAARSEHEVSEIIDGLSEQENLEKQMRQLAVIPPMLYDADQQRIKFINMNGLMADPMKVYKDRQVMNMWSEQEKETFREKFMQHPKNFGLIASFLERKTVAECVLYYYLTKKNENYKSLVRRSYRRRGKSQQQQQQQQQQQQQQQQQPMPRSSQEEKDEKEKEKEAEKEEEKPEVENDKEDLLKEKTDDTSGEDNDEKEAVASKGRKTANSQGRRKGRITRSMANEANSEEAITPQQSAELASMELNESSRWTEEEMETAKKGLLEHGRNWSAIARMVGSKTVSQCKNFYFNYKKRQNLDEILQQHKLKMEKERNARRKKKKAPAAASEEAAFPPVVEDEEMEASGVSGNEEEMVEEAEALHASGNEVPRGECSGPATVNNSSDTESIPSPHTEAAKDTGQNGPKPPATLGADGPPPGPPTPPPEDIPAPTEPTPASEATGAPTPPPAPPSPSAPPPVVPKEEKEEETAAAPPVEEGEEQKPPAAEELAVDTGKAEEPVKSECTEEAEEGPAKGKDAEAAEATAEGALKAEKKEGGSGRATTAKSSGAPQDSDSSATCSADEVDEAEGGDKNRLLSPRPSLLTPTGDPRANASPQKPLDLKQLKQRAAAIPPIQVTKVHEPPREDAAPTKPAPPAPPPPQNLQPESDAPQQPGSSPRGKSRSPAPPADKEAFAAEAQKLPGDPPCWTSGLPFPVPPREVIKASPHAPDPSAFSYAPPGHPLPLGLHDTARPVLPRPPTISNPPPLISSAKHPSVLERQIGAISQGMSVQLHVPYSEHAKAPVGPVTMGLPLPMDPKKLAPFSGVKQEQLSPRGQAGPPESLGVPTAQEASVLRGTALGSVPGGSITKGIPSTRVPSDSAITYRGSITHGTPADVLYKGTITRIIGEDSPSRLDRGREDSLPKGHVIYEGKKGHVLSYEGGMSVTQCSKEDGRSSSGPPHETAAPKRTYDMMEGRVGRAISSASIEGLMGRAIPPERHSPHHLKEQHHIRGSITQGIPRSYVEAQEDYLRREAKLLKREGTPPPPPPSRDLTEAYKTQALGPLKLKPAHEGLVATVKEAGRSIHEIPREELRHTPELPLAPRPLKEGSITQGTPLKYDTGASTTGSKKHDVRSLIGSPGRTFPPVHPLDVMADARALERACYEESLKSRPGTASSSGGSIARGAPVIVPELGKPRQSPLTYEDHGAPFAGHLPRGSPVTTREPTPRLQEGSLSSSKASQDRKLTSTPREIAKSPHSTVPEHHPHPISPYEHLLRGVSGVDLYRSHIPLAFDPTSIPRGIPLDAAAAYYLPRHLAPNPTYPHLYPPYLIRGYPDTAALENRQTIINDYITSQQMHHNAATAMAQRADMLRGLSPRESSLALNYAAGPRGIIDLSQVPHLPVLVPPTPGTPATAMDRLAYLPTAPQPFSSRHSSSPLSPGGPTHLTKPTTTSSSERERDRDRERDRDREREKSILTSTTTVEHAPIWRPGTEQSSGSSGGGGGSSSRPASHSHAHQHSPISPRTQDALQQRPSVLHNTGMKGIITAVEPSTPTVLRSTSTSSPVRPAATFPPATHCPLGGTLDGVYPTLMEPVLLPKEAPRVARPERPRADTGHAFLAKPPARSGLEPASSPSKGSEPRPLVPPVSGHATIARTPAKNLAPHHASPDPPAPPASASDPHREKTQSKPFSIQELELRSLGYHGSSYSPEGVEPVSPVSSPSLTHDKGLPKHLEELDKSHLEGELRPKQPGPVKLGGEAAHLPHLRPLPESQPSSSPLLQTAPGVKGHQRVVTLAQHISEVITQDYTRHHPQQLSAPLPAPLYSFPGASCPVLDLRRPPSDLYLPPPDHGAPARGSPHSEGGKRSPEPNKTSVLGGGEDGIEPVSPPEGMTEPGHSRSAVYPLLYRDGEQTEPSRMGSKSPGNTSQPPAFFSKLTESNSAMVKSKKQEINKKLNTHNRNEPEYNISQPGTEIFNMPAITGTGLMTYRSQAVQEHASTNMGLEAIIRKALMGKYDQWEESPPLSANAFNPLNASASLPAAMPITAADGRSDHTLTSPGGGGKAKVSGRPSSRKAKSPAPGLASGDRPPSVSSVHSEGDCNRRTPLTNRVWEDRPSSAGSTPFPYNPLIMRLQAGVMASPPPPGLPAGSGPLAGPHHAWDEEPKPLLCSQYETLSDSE

IC50 [1] [nM] | IC50 [2] [nM] | SMILES | also measured
60.3 | – | Nc1cccc(-c2csc(NC(=O)CCCCCCC(=O)Nc3ccccc3N)n2)c1 | –
– | 60 to 170 | CC[C@@H](C(=O)Nc1ccc(C(=O)Nc2ccc(F)cc2N)cc1)c1ccccc1 | –
21.1 | – | Nc1ccccc1NC(=O)CCCCCCC(=O)NO | –
60 | – | CCOC(=O)Nc1cccc(-c2csc(NC(=O)CCCCCCC(=O)Nc3ccccc3N)n2)c1 | –
– | 1000 | Nc1cc(F)ccc1NC(=O)c1ccc(NC(=O)C2(c3ccccc3)CC2)cn1 | –
– | 210 to 579 | C[C@@H](C(=O)Nc1ccc(C(=O)Nc2ccc(F)cc2N)cc1)c1ccccc1 | –
30 | – | CC(=O)Nc1cccc(-c2csc(NC(=O)CCCCCCC(=O)Nc3ccccc3N)n2)c1 | –
– | 110 to 530 | CC[C@H](C(=O)Nc1ccc(C(=O)Nc2ccc(F)cc2N)cc1)c1ccccc1 | –
– | – | CC(=O)Nc1ccc(C(=O)Nc2ccc(F)cc2N)cc1 | Ratio IC50 [3]: 17; Ratio IC50 [4]: 17
– | 80 | CC(C)[C@H](C(=O)Nc1ccc(C(=O)Nc2ccc(F)cc2N)cc1)c1ccccc1 | –
552 | – | Nc1ccccc1NC(=O)CCCCCCC(=O)NOCc1ccccc1 | –
– | 130 to 230 | C[C@H](C(=O)Nc1ccc(C(=O)Nc2ccc(F)cc2N)cc1)c1ccccc1 | –
– | 200 | Nc1cc(F)ccc1NC(=O)c1ccc(NC(=O)C2(c3ccccc3)CC2)cc1 | –
160 | – | CC(C)(C)OC(=O)Nc1cccc(-c2csc(NC(=O)CCCCCCC(=O)Nc3ccccc3N)n2)c1 | –
– | 300 to 1700 | CC(C)[C@@H](C(=O)Nc1ccc(C(=O)Nc2ccc(F)cc2N)cc1)c1ccccc1 | –
– | – | C=C1CN(Cc2ccc(C(=O)Nc3ccccc3N)cc2)C(=O)c2ccccc21 | Ratio IC50 [5]: 2; IC50 [6]: 16 nM; Ratio IC50 [7]: 2; Ratio IC50 [8]: 2; Ratio IC50 [9]: 2; Ratio IC50 [3]: 2; Ratio IC50 [4]: 2
1500 | – | Nc1ccccc1NC(=O)CCCCCCC(=O)Nc1ccc(-c2cn(Cc3ccccc3)nn2)cc1 | –
